Source: patent US12539307B2, “Oral cannabinoid formulation comprising tocopheryl phosphates and long chain triglycerides or long chain fatty acids” (AVECHO BIOTECHNOLOGY LIMITED, priority 2020, dated 2026)

Columns and labels:
[1] = In-vitro rat lipolysis: simulated rat gastric (0-30 min) and intestinal (30-90 min) digestion; assay type: in vitro ADME
Method: FIG. 4. CBD solubility in-vitro in simulated gastric (0-30 min) and intestinal (30-90 min) conditions. Group 1: MCT. Group 2: 50 mg/ml TPM in MCT. Group 3: 100 mg/ml TPM in MCT. Group 4: 100 mg/ml TPM in 1:1 MCT/Maisine CC. Group 5: 200 mg/ml TPM in 1:1 MCT/Maisine CC.
Further in-vitro lipolysis experiments were conducted to investigate CBD dispersibility and solubility in a model of the gastric and intestinal spaces. The effect of TPM and the formulation vehicle was assessed by comparison to CBD dissolved in an MCT vehicle at 100 mg/ml. A rat gastric-intestinal model was selected in order to have best correlation with a subsequent in-vivo pk study in rats.
The in vitro lipolysis experiment simulated rat gastrointestinal conditions. The dispersion study was done in a lipolysis vessel containing simulated rat gastric medium at pH 2.4 and the gastric digestion of the formulations was assessed during 30 min. Afterwards, a concentrated bile buffer together with pancreatin was added to the gastric medium leading to the final concentrations which simulated the rat intestinal conditions. Subsequently, lipid digestion and drug solubilization was evaluated for 60 min.

[2] = In vivo bioavailability (pk study) after a single oral gavage; parameters: species or system Sprague-Dawley rats; conditions: rats
Method: Male Sprague-Dawley rats (301-353 g at the time of the study) are acclimatized for a minimum of seven days on standard feed with free access to water. The rats are housed under controlled environmental parameters (temperature: 22.1° C., relative humidity: 57%), and with reversed light cycle (12 h/12 h).
The formulations are administered to each rat by oral gavage with a polyurethane feeding tube (Instech Laboratories Inc., Plymouth Meeting, USA). Blood samples (200 μL) are collected from the tail vein before dosing and at 0, 0.5, 1, 2, 4, 6, and 8 h after dosing. After the 6 h blood sample, the rats were given access to standard feed. At 23 h, the rats are euthanized by gassing and a blood sample is withdrawn from the heart immediately after. All blood samples were collected in ethylenediaminetetraacetic acid (EDTA) tripotassium salt dihydrate coated tubes (Sarstedt, Helsingborg, Sweden), and centrifuged at 10,000 RPM for 10 min. After centrifugation, the plasma was transferred to polypropylene microtubes and stored at −20° C. until LC-MS analysis.

[3] = In vitro intestinal digestion of carrier oil in fasted media (pH 6.5): solubilisation of CBD; assay type: in vitro ADME; conditions: with TPM
Method: FIG. 1—Solubilisation of CBD during in vitro intestinal digestion of carrier oil (MCT, LCT/LCFA, or a mixture of MCT:LCT/LCFA) in fasted media (pH 6.5). Total lipid was 110 mg (100 mg carrier oil+10 mg CBD). Data are mean±SD, n=3. A. CBD concentration (mg) during digestion in MCT. B. CBD concentration (mg) during digestion in LCT/LCFA (Maisine CC). C. CBD concentration (mg) during digestion in a mixture of MCT:LCT/LCFA (Maisine CC)
FIG. 2—Solubilisation of CBD in the presence of TPM during in vitro gastro-intestinal digestion of carrier oil (MCT, LCT/LCFA, or a mixture of MCT:LCT/LCFA) in fasted media. Total lipid was 110 mg (80-90 mg carrier oil+10 mg CBD+10-20 mg TPM). Data are mean±SD, n=3. A. CBD concentration (mg) during digestion in MCT with TPM. B. CBD concentration (mg) during digestion in LCT/LCFA (Maisine CC) with TPM. C. CBD concentration (mg) during digestion in a mixture of MCT:LCT/LCFA (Maisine CC) with TPM.
FIG. 3—Solubilisation of CBD in the presence of TPM during in vitro digestion of carrier oil (MCT, LCT/LCFA, or a mixture of MCT:LCT/LCFA) in fasted media (pH 6.5). Total lipid was 110 mg (80-90 mg carrier oil+10 mg CBD+10-20 mg TPM). Data are mean±SD, n=3. A. CBD concentration (mg) during digestion in 3:1 MCT:LCT/LCFA, with TPM. B. CBD concentration (mg) during digestion in 1:1 MCT:LCT/LCFA, with TPM. C. CBD concentration (mg) during digestion in 1:3 MCT:LCT/LCFA, with TPM.
In vitro digestion experiments were carried out to determine whether TPM in various carrier oils could increase the intestinal aqueous solubility of CBD. These experiments utilised a model of digestion in an intestinal environment at a pH of about 6.5. From the model, one can make determinations regarding the likely solubility of CBD or other cannabinoids such as THC in an aqueous intestinal fluid.

C=C(C)[C@@H]1CCC(C)=C[C@H]1c1c(O)cc(CCCCC)cc1O [CBD, cannabidiol]
dispersibility and solubility of CBD in simulated gastric and intestinal spaces ([1]; addition of TPM to MCT containing CBD (100 mg/ml)): increased
dispersibility and solubility of CBD in the intestinal space ([1]; addition of TPM to MCT:LCT/LCFA vehicles containing CBD (100 mg/ml)): increased
increase of mean Cmax relative to control CBD formulation in MCT alone ([2]; addition of 50 mg/ml TPM to MCT carrier): ~5 ×
increase of mean Cmax relative to control CBD formulation in MCT alone ([2]; addition of 100 mg/ml TPM to MCT carrier): ~14 times
increase of mean Cmax relative to control CBD formulation in MCT alone ([2]; addition of 100 mg/ml TPM to MCT:LCT/LCFA carrier): ~30 ×
increase of mean Cmax relative to control CBD formulation in MCT alone ([2]; addition of 200 mg/ml TPM to MCT:LCT/LCFA carrier): ~40 times
aqueous CBD solubility during digestion, by MCT:LCT/LCFA ratio ([3]; vehicle 1:1 MCT:LCT/LCFA): best increase
aqueous CBD solubility during digestion, by MCT:LCT/LCFA ratio ([3]; vehicle 1:3 MCT:LCT/LCFA, also significant CBD in immiscible oil phase): slight increase
aqueous CBD solubility during digestion, by MCT:LCT/LCFA ratio ([3]; vehicle 3:1 MCT:LCT/LCFA): CBD precipitation
